# Source: patent publication US20120190687A1, “Pyrazinylpyrazoles” (Bayer CropScience Ag, priority 2009, published 2012)
# Columns and labels:
# [1] = logP by reversed-phase HPLC (EEC Directive 79/831 Annex V.A8); assay type: physicochemical
# Description: [table] The calibration is effected with unbranched alkan-2-ones (having 3 to 16 carbon atoms) with known log P values (log P values determined on the basis of the retention times by linear interpolation between two successive alkanones).
# Tetranychus urticae = assay: Tetranychus test, OP-resistant (TETRUR spray treatment); assay type: in vivo; details: bean leaf discs, after 6 days
# Description: Tetranychus Test, OP-resistant (TETRUR Spray Treatment)
# Solvent: 78.0 parts by weight of acetone • • 1.5 parts by weight of dimethylformamide
# Emulsifier: 0.5 part by weight of alkylaryl polyglycol ether
# To prepare an appropriate active ingredient preparation, 1 part by weight of active ingredient is mixed with the stated amounts of solvent and emulsifier, and the concentrate is diluted with emulsifier-containing water to the desired concentration. Discs of bean leaves (Phaseolus vulgaris) infested by all stages of the red spider mite (Tetranychus urticae) are sprayed with an active ingredient preparation of the desired concentration. After 6 days, the efficacy in % is determined. 100% means that all spider mites have been killed; 0% means that none of the spider mites have been killed.
# Spodoptera frugiperda = Spodoptera frugiperda test (SPODFR spray treatment); assay type: in vivo; details: 500 g/ha, maize leaf discs, after 7 days
# Description: Spodoptera frugiperda Test (SPODFR Spray Treatment) Solvent: 78.0 parts by weight of acetone • • 1.5 parts by weight of dimethylformamide Emulsifier: 0.5 part by weight of alkylaryl polyglycol ether To prepare an appropriate active ingredient preparation, 1 part by weight of active ingredient is mixed with the stated amounts of solvent and emulsifier, and the concentrate is diluted with emulsifier-containing water to the desired concentration. Discs of maize leaves (Zea mays) are sprayed with an active ingredient preparation of the desired concentration and, after drying, populated with caterpillars of the armyworm (Spodoptera frugiperda). After 7 days, the efficacy in % is determined. 100% means that all caterpillars have been killed; 0% means that none of the caterpillars have been killed.
# Phaedon cochleariae = assay: Phaedon test (PHAECO spray treatment); assay type: in vivo; details: 500 g/ha, Chinese cabbage discs, after 7 days
# Description: Phaedon Test ([…] Spray Treatment) Solvent: 78.0 parts by weight of acetone • • 1.5 parts by weight of dimethylformamide Emulsifier: 0.5 part by weight of alkylaryl polyglycol ether To prepare an appropriate active ingredient preparation, 1 part by weight of active ingredient is mixed with the stated amounts of solvent and emulsifier, and the concentrate is diluted with emulsifier-containing water to the desired concentration. Discs of Chinese cabbage (Brassica pekinensis) are sprayed with an active ingredient preparation of the desired concentration and, after drying, populated with larvae of the mustard beetle (Phaedon cochleariae). After 7 days, the efficacy in % is determined. 100% means that all beetle larvae have been killed; 0% means that none of the beetle larvae have been killed.
# Musca domestica = Musca domestica test; assay type: in vivo; details: 100 ppm, after 2 days
# Description: (§1) Musca domestica Test Solvent: Dimethyl Sulphoxide To prepare an appropriate active ingredient formulation, 10 mg of active ingredient are mixed with 0.5 ml of dimethyl sulphoxide and the concentrate is diluted with water to the desired concentration. Vessels containing a sponge treated with the active ingredient preparation of the desired concentration are populated with adult Musca domestica. After 2 days, the kill in % is determined. 100% means that all of the flies have been killed; 0% means that none of the flies have been killed.
# Ctenocephalides felis = Ctenocephalides felis test (CTECFE); assay type: in vivo; details: 100 ppm in citrated cow's blood, after 2 days
# Description: Ctenocephalides felis Test ([…]) Solvent: 1 Part by Weight of Dimethyl Sulphoxide For the purpose of preparing an appropriate active ingredient formulation, 10 mg of active ingredient are mixed with 0.5 ml of dimethyl sulphoxide. A portion of the concentrate is diluted with citrated cow's blood and the desired concentration is established. About 20 unfed adult fleas (Ctenocephalides felis) are introduced into a chamber closed at the top and bottom with gauze. A metal cylinder, the bottom of which is closed with Parafilm, is placed onto the chamber. The cylinder contains the blood/active ingredient preparation, which can be imbibed by the fleas through the Parafilm membrane. After 2 days, the kill in % is determined. 100% means that all fleas have been killed; 0% means that none of the fleas have been killed.
# Lucilia cuprina larvae = assay: Lucilia cuprina test (LUCICU); assay type: in vivo; details: 100 ppm, treated horse meat, after 2 days
# Description: as §1, with “Lucilia cuprina” for “Musca domestica”, “Test (LUCICU)” for “Test”, “horse meat” for “a sponge”, “about 20 Lucilia cuprina larvae.” for “adult Musca domestica.”, “larvae” for “flies”
# Boophilus microplus = Boophilus microplus test (BOOPMI injection); assay type: in vivo; details: 20 μg/animal, injection into abdomen, after 7 days, laying of fertile eggs
# Description: Boophilus microplus Test (BOOPMI Injection) Solvent: Dimethyl Sulphoxide To prepare an appropriate active ingredient formulation, 10 mg of active ingredient are mixed with 0.5 ml of solvent and the concentrate is diluted with solvent to the desired concentration. The active ingredient solution is injected into the abdomen (Boophilus microplus), and the animals are transferred into dishes and stored in a climate-controlled room. The efficacy is assessed by laying of fertile eggs. After 7 days, the efficacy in % is determined. 100% means that none of the ticks has laid any fertile eggs.
# Myzus persicae = assay: Myzus test (MYZUPE spray treatment); assay type: in vivo; details: 500 g/ha, Chinese cabbage discs, after 6 days
# Description: Myzus test (MYZUPE Spray Treatment) Solvent: 78 parts by weight of acetone • • 1.5 parts by weight of dimethylformamide Emulsifier: 0.5 part by weight of alkylaryl polyglycol ether To prepare an appropriate active ingredient preparation, 1 part by weight of active ingredient is mixed with the stated amounts of solvent and emulsifier, and the concentrate is diluted with emulsifier-containing water to the desired concentration. Discs of Chinese cabbage (Brassica pekinensis) infested by all stages of the green peach aphid (Myzus persicae) are sprayed with an active ingredient preparation of the desired concentration. After 6 days, the efficacy in % is determined. 100% means that all of the aphids have been destroyed; 0% means that none of the aphids have been destroyed.
# [2] = * LC-MS, acidic range, pH 2.7, 0.1% aqueous formic acid / acetonitrile
Structure (SMILES),"log P [1, 2]","log P ([1]; *** LC-MS, neutral range, pH 7.8, 0.001 molar aqueous ammonium hydrogencarbonate / acetonitrile)","log P ([1]; ** acidic range, pH 2.3, 0.1% aqueous phosphoric acid / acetonitrile)",efficacy (Tetranychus urticae; 500 g/ha),efficacy (Spodoptera frugiperda),efficacy (Phaedon cochleariae),efficacy (kill) (Musca domestica),efficacy (kill) (Ctenocephalides felis),efficacy (kill) (Lucilia cuprina larvae),efficacy (Boophilus microplus),efficacy (Tetranychus urticae; 100 g/ha),efficacy (Myzus persicae)
COc1nccnc1-n1nc(C(F)(F)F)c(-c2cc(Cl)cc(C(F)(F)F)c2)c1N [Ex. 10],4.07*,,,,,,100%,90%,100%,100%,,
CCOc1nccnc1-n1nc(C(F)(F)F)c(-c2cc(Cl)cc(C(F)(F)F)c2)c1N [Ex. 12],4.47*,,,90%,,100%,100%,90%,100%,100%,,
C=Cc1nn(-c2nccnc2OC)c(N)c1-c1cc(Cl)cc(C(F)(F)F)c1 [Ex. 9],3.63*,,,100%,100%,100%,,,100%,100%,,100%
CSc1nccnc1-n1nc(C(F)(F)F)c(-c2cc(Cl)cc(C(F)(F)F)c2)c1N [Ex. 28],4.9*,,,,100%,100%,,,100%,100%,,
CCC(OC)c1nn(-c2nccnc2OC)c(N)c1-c1ccc(Cl)c(Cl)c1 (centres unmarked) [Ex. 3],,,,100%,,100%,,,100%,100%,,
COc1nccnc1-n1nc(C(F)(F)F)c(-c2cc(Cl)cc(C(F)(F)F)c2)c1NCc1ccccc1 [Ex. 33],5.28*,,,90%,,100%,,,,,,80%
COc1nccnc1-n1nc(C(F)(F)C(F)F)c(-c2cc(Cl)cc(C(F)(F)F)c2)c1N [Ex. 59],4.05*,,,100%,83%,100%,,,,,,100%
COc1nccnc1-n1nc(C(F)(F)C(F)(F)C(F)(F)F)c(-c2cc(Cl)cc(C(F)(F)F)c2)c1N [Ex. 46],4.91*,,,80%,100%,100%,,80%,100%,100%,,80%
COc1ccc(CNc2c(-c3cc(Cl)cc(C(F)(F)F)c3)c(C(F)(F)F)nn2-c2nccnc2OC)cc1 [Ex. 41],5.13*,,,,,100%,,80%,100%,,,90%
COc1nccnc1-n1nc(C(F)(F)F)c(-c2cc(Cl)cc(Cl)c2)c1N [Ex. 6],3.95*,,,,83%,100%,80%,90%,100%,100%,,
COc1cc(-c2c(C(F)(F)F)nn(-c3nccnc3OC)c2N)cc(C(F)(F)F)c1OC [Ex. 89],3.56*,,,,100%,100%,80%,100%,100%,100%,,
COc1nccnc1-n1nc(C(F)(F)C(F)F)c(-c2cc(Cl)c3c(c2)OCO3)c1N [Ex. 65],3.18*,,,90%,100%,100%,,,,,,
COc1nccnc1-n1nc(C(F)(F)C(F)F)c(-c2cc(Cl)c3c(c2)CCO3)c1N [Ex. 66],3.22*,,,90%,100%,100%,,,,,,

# The next lines start with results.
"log P [1, 2]","log P ([1]; *** LC-MS, neutral range, pH 7.8, 0.001 molar aqueous ammonium hydrogencarbonate / acetonitrile)","log P ([1]; ** acidic range, pH 2.3, 0.1% aqueous phosphoric acid / acetonitrile)",Structure (SMILES),efficacy (Tetranychus urticae; 500 g/ha),efficacy (Spodoptera frugiperda),efficacy (Phaedon cochleariae),efficacy (kill) (Musca domestica),efficacy (kill) (Ctenocephalides felis),efficacy (kill) (Lucilia cuprina larvae),efficacy (Boophilus microplus),efficacy (Tetranychus urticae; 100 g/ha),efficacy (Myzus persicae)
4.72*,,,COc1nccnc1-n1nc(C(F)(F)F)c(-c2cc(Cl)c(N(C)C)c(C(F)(F)F)c2)c1N [Ex. 123],80%,100%,100%,,,,,,
4.46*,,,COc1nccnc1-n1nc(C(F)(F)F)c(-c2cc(Cl)c(N(C)C)c(Cl)c2)c1N [Ex. 121],,100%,100%,,,,,80%,
3.47*,3.5***;,,COc1nccnc1-n1nc(C(F)(F)F)c(-c2cc(F)c(OC)c(Cl)c2)c1N [Ex. 124],90%,100%,100%,,,,,,
3.02*,,,COc1nccnc1-n1nc(C(F)(F)F)c(-c2cc(Cl)c3c(c2)COCO3)c1N [Ex. 135],,80%,100%,,100%,100%,100%,,
,,4.37**,COc1nccnc1-n1nc(C(F)(F)C(F)F)c(-c2cc(Cl)c(Cl)c(Cl)c2)c1N [Ex. 116],90%,100%,100%,,,,,,
4.08*,,,C=CCN(CC=C)c1c(-c2cc(Cl)cc(C(F)(F)F)c2)c(C(F)(F)F)nn1-c1nccnc1OC [Ex. 103],,,,,,,,,80%
3.25*,,,COc1nccnc1-n1nc(C(F)(F)F)c(-c2cc(Cl)c3c(c2)OCCCO3)c1N [Ex. 136],,,100%,,100%,100%,100%,,
3.79*,,,C=C(C)c1nn(-c2nccnc2OC)c(N)c1-c1cc(Cl)cc(Cl)c1 [Ex. 167],100%,,100%,,,,,,100%
3.27*,,,COc1nccnc1-n1nc(C(F)(F)F)c(-c2cc3c(c(C(F)(F)F)c2)OCCO3)c1N [Ex. 173],90%,100%,100%,,,,,,
3.58*,,,COc1cc(-c2c(C(F)(F)C(F)F)nn(-c3nccnc3OC)c2N)cc(C(F)(F)F)c1OC [Ex. 157],100%,100%,100%,,,,,,
3.77*,,,COc1nccnc1-n1nc(C(C)(C)F)c(-c2cc(Cl)cc(Cl)c2)c1N [Ex. 168],100%,100%,100%,,,,,,100%
